The results in this text go back to the supplement of paper PMC10307832.

What all share (experiment): relative viability (nuclei count vs DMSO), 5 days (fraction); higher = more cells survive
Compound in the test “PAC-1 + Vorinostat”: C=CCc1cccc(/C=N/NC(=O)CN2CCN(Cc3ccccc3)CC2)c1O [PAC-1] + O=C(CCCCCCC(=O)Nc1ccccc1)NO [Vorinostat] (partner 1 µM)
In outline: (§1)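 Five library-drug doses in √10 steps were combined with a fixed anchor-drug dose, or a single drug was given alone, by pin tool to lung cancer cell lines in 1536-well plates the day after seeding. Nuclei were stained and counted after 5 days. Relative viability is the nuclei count in treated wells over that in vehicle wells, taken as the median of duplicate plates.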

Compound in the test “BMX-IN-1 + Luminespib”: C=CC(=O)Nc1cc(-n2c(=O)ccc3cnc4ccc(-c5ccc(NS(C)(=O)=O)cc5)cc4c32)ccc1C [BMX-IN-1] + CCNC(=O)c1noc(-c2cc(C(C)C)c(O)cc2O)c1-c1ccc(CN2CCOCC2)cc1 [Luminespib] (partner 0.01 µM)
In outline:
as §1

Compound in the test “BMX-IN-1 + Pemetrexed”: C=CC(=O)Nc1cc(-n2c(=O)ccc3cnc4ccc(-c5ccc(NS(C)(=O)=O)cc5)cc4c32)ccc1C [BMX-IN-1] + Nc1nc2[nH]cc(CCc3ccc(C(=O)N[C@@H](CCC(=O)O)C(=O)O)cc3)c2c(=O)[nH]1 [Pemetrexed] (partner 0.2 µM)
The gist of the method:
as §1

Compound in the test “Ibrutinib + Olaparib”: C=CC(=O)N1CCC[C@@H](n2nc(-c3ccc(Oc4ccccc4)cc3)c3c(N)ncnc32)C1 [Ibrutinib] + O=C(c1cc(Cc2n[nH]c(=O)c3ccccc23)ccc1F)N1CCN(C(=O)C2CC2)CC1 [Olaparib] (partner 8 µM)
The gist of the method: as §1

In the case of SK-MES-1, the relative viability with PAC-1 + Vorinostat (first compound 0.02 µM) came out at 1.18; with PAC-1 + Vorinostat (first compound 0.06325 µM) it was 1.09; in the test with PAC-1 + Vorinostat (first compound 0.2 µM) it was 1.02; with PAC-1 + Vorinostat (first compound 2 µM) it was 1.17; with BMX-IN-1 + Luminespib (first compound 0.02 µM) it was 0.831; with BMX-IN-1 + Luminespib (first compound 0.2 µM), 0.879. Besides, the relative viability in the test with BMX-IN-1 + Luminespib (first compound 0.6325 µM) was 0.835; with BMX-IN-1 + Luminespib (first compound 2 µM), 0.921; with BMX-IN-1 + Pemetrexed (first compound 0.02 µM), 1.11; with BMX-IN-1 + Pemetrexed (first compound 0.2 µM) it was 1.11; with BMX-IN-1 + Pemetrexed (first compound 0.6325 µM), 1.03; in the test with BMX-IN-1 + Pemetrexed (first compound 2 µM), 0.859. Further, the relative viability with Ibrutinib + Olaparib (first compound 0.005 µM) turned out to be 0.748; in the test with Ibrutinib + Olaparib (first compound 0.01581 µM), 0.639; with Ibrutinib + Olaparib (first compound 0.05 µM), 0.652; in the test with Ibrutinib + Olaparib (first compound 0.1581 µM), 0.879; with Ibrutinib + Olaparib (first compound 0.5 µM) it was 0.461.
